Laboratory results taken from patent US4119730A, “Treating muscle spasms” (Chimicasa GmbH, priority 1976, dated 1978).
In brackets after ≈: the same amount, converted by molar mass. Like-named read-outs stand apart in the source and are kept apart here.

Assays:
[1] = test system: isolated guinea pig intestine; test: inhibition of histamine-induced contraction of isolated guinea pig intestine; conditions: Cavia porcellus, 2 min, read-out: ED50 (concentration of agent per liter of bath liquid which inhibits the contraction of the intestine by 50%)
Method: The antispasmodic effect of the compounds (I) could not be expected from a study of their structure alone. Their effectiveness has been measured in a pharmacological standard test as follows:
Several 3 cm-long pieces of an isolated guinea pig intestine were stretched under a load of 0.5 g in separate baths. In all baths, the bath liquid was Tyrode's solution, warmed to 32° C. A first contraction of the pieces of intestine was produced in each case by adding 0.5 mg (milligram) of histamine chloride per liter of bath liquid. he reduction in length caused by the first contraction was measured 2 min (minutes) after adding the histamine chloride.
The bath liquids were then renewed and, after relaxation of the first contraction, the agent under test, dissolved in propylene glycol, was added to the bath liquids and 2 min later 0.5 mg. of histamine chloride per liter of bath liquid was again added. A second contraction was thereby produced and the reduction in length caused by this was measured 2 min after the addition of the histamine chloride. […] The concentrations (ED50) of agent per liter of bath liquid, which inhibit the contraction of the intestine by 50% were determined (ED50 = effective dose to inhibit for 50%).

bladder = test: cystometric measuring of the damping of the increase of the bladder tonus caused by a spasmogenic agent (carbachol); assay type: in vivo, human
Method: The effectiveness test is performed by cystometric measuring of the damping of the increase of the bladder tonus caused by the antispasmodic agent after intravesical administration of a spasmogenic agent as follows:
The bladder capacity (BC) of several human subjects with indwelling permanent catheters is measured by filling the bladders with water warmed to 37° C. The maximum micturition pressure (MM) in the case of the filled bladder is measured. The bladder is then emptied and filled again with warm, clean water to half the capacity measured previously (1/2 BC) and the pressure P1 in the case of the half-filled bladder is measured. The bladder is again emptied and filled again to half its capacity with a solution 1. […] The pressure P2 for half its capacity is measured. […] 30 minutes thereafter the emptied bladder is filled with water, warmed to 37° C. to half its capacity and the pressure P3 is measured. The bladder is subsequently emptied and filled to half its capacity with the solution 1 and the pressure P4 is measured. Fifteen minutes later, the bladder is emptied again and filled to half its capacity with water, warmed to 37° C. and the pressure P5 is measured. Directly thereafter, the bladder is emptied and filled to half its capacity with solution 1 and the pressure P6 is measured. […]

[2] = cited from earlier work
[3] = 0.5 mg histamine chloride per liter, Tyrode's solution, 32° C.

With `C=CCc1ccc(OC(=O)CCC)c(OC)c1` [4-Allyl-2-methoxyphenyl butanoate] the IC50 [1, 3] was 14.5 µg/mL (≈ 61.9 µM).

Molecule `C=CCc1ccc(OC(=O)c2ccccc2)c(OC)c1` [4-Allyl-2-methoxyphenyl benzoate] has an IC50 [1, 3] of 160 µg/mL (≈ 596 µM).

In the case of `C=CCc1ccc(OC(C)=O)c(OC)c1` [4-Allyl-2-methoxyphenyl acetate], the IC50 [1, 3] is reported as 25 µg/mL and the effectiveness on humans (bladder; rectal or oral) is reported as “effectiveness”.

In the case of `CN1[C@@H]2CC[C@H]1C[C@@H](OC(=O)C(CO)c1ccccc1)C2` (stereo partly drawn) [atropine], the drug dependence ([2]; especially with long term treatment, prior art) is listed as “drug dependence can occur” and the “side effects associated with use” value ([2]; known antispasmodic, prior art) is listed as “inducement of sleepiness, mental confusion and a state of inattentiveness”.

In the case of `C=CCc1ccc(OC)c(OC)c1` [1-Allyl-3,4-dimethoxybenzene], the IC50 [1] is reported as 11.8 µg/mL (≈ 66.2 µM) and the effectiveness on humans (bladder; rectal) is reported as “effectiveness”.

In the case of `CC=Cc1ccc(OC(C)=O)c(OC)c1` [2-Methoxy-4-propenylphenyl acetate], the IC50 [1] is reported as 52 µg/mL.

With `CC=Cc1ccc(OC)c(OC)c1` [3,4-Dimethoxy-propenylbenzol] the IC50 [1, 3] was 27 µg/mL (≈ 151 µM).

`C=CCc1ccc(OC(=O)CCCC)c(OC)c1` [4-Allyl-2-methoxyphenyl valerate] showed an IC50 [1, 3] of 44.6 µg/mL (≈ 180 µM).

In the case of `COc1ccc(Cc2nccc3cc(OC)c(OC)cc23)cc1OC` [Papaverine], the non-specific actions ([2]; in vivo) is listed as “observed”, the “activity in animal experiments” value ([2]; prior art) is listed as “very active in animal experiments” and the “activity when used on humans” value ([2]; prior art) is listed as “its activity is insufficient”. The “dosage required in severe spasms relative to lethal dose” value ([2]; prior art, lethal dose from animal experiments) was “very high dosages, near the lethal dose”.
